Assay results as given in article PMC7901699, “Challenging inflammatory process at molecular, cellular and in vivo levels via some new pyrazolyl thiazolones” (Journal of Enzyme Inhibition and Medicinal Chemistry, 2021).
“Also recorded” adds a separate entry of the source.

Assays:
15-LOX = molecular target: T1, 15-LOX (Glycine max, UniProt P08170); assay: In vitro 15-LOX inhibition assay (lipoxygenase inhibitor screening kit, Cayman); type: biochemical; details: for IC50: mean of three determinations
T1 construct: purchased Cayman chemicals 760700
T1 sequence (P08170 1-839): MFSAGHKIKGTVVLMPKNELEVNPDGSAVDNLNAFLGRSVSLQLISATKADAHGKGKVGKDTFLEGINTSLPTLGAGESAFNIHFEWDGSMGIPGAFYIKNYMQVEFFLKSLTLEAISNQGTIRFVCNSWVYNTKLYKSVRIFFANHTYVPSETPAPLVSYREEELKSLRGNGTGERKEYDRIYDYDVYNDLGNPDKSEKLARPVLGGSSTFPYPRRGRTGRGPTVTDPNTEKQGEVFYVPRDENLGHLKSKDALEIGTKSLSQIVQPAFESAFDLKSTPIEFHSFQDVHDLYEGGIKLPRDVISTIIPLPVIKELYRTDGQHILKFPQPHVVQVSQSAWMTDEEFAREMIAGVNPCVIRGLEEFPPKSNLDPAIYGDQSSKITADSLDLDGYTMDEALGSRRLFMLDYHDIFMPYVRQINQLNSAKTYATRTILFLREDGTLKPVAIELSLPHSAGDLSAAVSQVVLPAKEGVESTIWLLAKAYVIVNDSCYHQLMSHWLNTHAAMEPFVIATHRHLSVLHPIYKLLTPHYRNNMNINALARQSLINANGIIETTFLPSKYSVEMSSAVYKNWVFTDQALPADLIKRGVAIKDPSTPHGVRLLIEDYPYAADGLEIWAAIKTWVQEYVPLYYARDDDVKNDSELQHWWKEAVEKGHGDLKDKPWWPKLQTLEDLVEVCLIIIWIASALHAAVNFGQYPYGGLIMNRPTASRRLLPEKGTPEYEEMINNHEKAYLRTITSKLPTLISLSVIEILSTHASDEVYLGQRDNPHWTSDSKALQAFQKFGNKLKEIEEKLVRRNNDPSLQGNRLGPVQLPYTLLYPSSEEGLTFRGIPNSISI
Experimental: (§1) Both assays were carried out in compliance with the manufacturer’s instructions and in accordance to prior studies[29]^,[33].
(§2) IC50 values (μM) and selectivity indices (SI) were calculated.

ovine COX-1 = molecular target: T2, ovine COX-1 (Ovis aries, UniProt P05979); assay: In vitro COX-1 inhibition assay (colorimetric COX inhibitor screening kit, Cayman); type: biochemical; details: mean of three determinations
T2 construct: purchased Cayman Chemicals Inc. 560131
T2 sequence (P05979 25-600): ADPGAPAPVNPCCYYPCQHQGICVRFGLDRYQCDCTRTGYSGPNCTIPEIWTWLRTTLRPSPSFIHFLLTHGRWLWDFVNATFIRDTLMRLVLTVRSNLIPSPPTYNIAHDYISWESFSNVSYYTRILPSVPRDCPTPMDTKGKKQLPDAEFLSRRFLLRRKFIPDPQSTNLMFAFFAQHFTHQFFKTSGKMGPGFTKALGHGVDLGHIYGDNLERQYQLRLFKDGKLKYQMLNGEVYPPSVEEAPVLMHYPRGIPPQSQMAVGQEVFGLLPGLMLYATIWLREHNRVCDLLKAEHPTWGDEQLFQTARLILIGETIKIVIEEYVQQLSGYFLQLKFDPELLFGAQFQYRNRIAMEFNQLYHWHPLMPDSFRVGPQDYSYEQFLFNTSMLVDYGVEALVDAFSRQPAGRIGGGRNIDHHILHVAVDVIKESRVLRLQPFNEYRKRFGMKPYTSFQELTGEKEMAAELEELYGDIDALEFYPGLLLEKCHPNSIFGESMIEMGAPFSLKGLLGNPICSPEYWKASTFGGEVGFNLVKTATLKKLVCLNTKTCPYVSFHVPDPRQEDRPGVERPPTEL
Experimental: as §1, §2

human recombinant COX-2 = molecular target: T3, human recombinant COX-2 (Homo sapiens, UniProt P35354); assay: In vitro COX-2 inhibition assay (colorimetric COX inhibitor screening kit, Cayman); type: biochemical; details: for SI (COX-1/ COX-2): IC50 (COX-1)/IC50 (COX-2); for IC50: mean of three determinations
T3 construct: purchased Cayman Chemicals Inc. 560131
T3 sequence (P35354 18-604): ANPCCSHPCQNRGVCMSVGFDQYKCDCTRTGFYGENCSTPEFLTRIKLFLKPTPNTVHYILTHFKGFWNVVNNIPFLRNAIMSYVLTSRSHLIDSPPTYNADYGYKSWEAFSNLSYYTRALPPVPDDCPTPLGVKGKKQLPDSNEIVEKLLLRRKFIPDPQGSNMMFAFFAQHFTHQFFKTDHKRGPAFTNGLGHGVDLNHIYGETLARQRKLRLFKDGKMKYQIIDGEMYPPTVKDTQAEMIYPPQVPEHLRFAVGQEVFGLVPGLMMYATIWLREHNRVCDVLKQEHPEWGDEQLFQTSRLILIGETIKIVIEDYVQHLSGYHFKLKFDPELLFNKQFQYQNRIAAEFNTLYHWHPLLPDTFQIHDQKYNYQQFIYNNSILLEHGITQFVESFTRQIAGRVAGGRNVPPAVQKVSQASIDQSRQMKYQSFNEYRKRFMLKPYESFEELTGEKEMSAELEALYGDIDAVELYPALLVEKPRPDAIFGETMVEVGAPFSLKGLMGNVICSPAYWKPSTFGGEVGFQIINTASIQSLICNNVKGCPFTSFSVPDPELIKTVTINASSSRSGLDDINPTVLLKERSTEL
Experimental: as §1, §2

[1] = system: formalin-induced rat paw oedema; assay: Formalin-induced paw oedema test (acute inflammation model); type: in vivo, Wistar rats; details: oral 5 mg/kg once daily for seven days; oedema 4 h after formalin; vs diclofenac sodium and celecoxib 5 mg/kg
Experimental: A freshly prepared 5% formalin solution (prepared from 37% formaldehyde and saline (Merck, Germany)) was used as a phlogistic agent. Test and reference compounds (5 mg/kg body weight) were dissolved in DMSO and given orally with gastric gavage once per day for seven consecutive days, whereas DMSO was administered to the control group. On the 8th day, the initial paw volume was determined by a Vernier calliper. Then, a subcutaneous injection of 40 μl formalin was introduced into the right hind paw of all groups under light ether anaesthesia. The paw volume was measured 4 h after the formalin injection and the oedema volume was calculated by the difference in paw volume before and 4 h after the formalin injection. The percentage inhibition of oedema (or % protection against inflammation) was calculated for each compound as previously reported[34]^,[35].

rat stomach = assay: Gastric ulcerogenic activity and histopathological examination; details: stomach removed on 8th day of administration, 5 mg/kg oral
Experimental: The same compounds were tested for chronic gastric ulcerative symptoms[37]^,[38]. Rat stomach was removed on the 8th day of drug administration. Stomach was opened through the greater curvature, washed and kept in saline. Gross examination was carried out for any signs of haemorrhage, hyperaemia, haemorrhagic erosion or ulcers. Moreover, histopathological inspection was conducted to verify the extent of inflammatory reaction in mucosal layers[28]^,[38].

[2] = system: cotton pellet-induced granuloma; assay: Cotton pellet-induced granuloma assay (chronic inflammation model); details: oral 5 mg/kg daily, pellets excised on 8th day, vs diclofenac sodium and celecoxib

Cc1nn(-c2ccccc2)c(Cl)c1/C=C1\SC(N2CCCCC2)=NC1=O [Compound 1, (Z)-5-((5-chloro-3-methyl-1-phenyl-1H-pyrazol-4-yl)methylene)-2-(piperidin-1-yl)thiazol-4(5H)-one]
IC50 (15-LOX): 1.96 µM | 15-LOX inhibition, times the activity of quercetin (15-LOX; relative to quercetin): 1.7 times | IC50 (ovine COX-1): 6.56 µM | SI (COX-1/ COX-2) (human recombinant COX-2): 59 | IC50 (human recombinant COX-2): 0.11 µM

Cc1nn(-c2ccccc2)c(Cl)c1/C=C1\SC(N2CCOCC2)=NC1=O [Compound 2, (Z)-5-((5-chloro-3-methyl-1-phenyl-1H-pyrazol-4-yl)methylene)-2-morpholinothiazol-4(5H)-one]
IC50 (15-LOX): 2.42 µM | IC50 (ovine COX-1): 8.14 µM | SI (COX-1/ COX-2) (human recombinant COX-2): 90 | IC50 (human recombinant COX-2): 0.09 µM | Inhibition of formalin-induced rat paw oedema (in words) [1]: as effective as either diclofenac or celecoxib | Gross observation of isolated rat stomachs (rat stomach; 5 mg/kg): normal texture | Inhibition of cotton pellet granuloma weight (in words) ([2]; 5 mg/kg): superior anti-inflammatory activity, when compared to diclofenac and celecoxib; also recorded: increased inhibition of granuloma weight in comparison to both celecoxib and diclofenac

O=C1N=C(N2CCCCC2)S/C1=C\c1cn(-c2ccccc2)nc1-c1ccccc1 [Compound 3, (Z)-5-((1,3-diphenyl-1H-pyrazol-4-yl)methylene)-2-(piperidin-1-yl)thiazol-4(5H)-one]
IC50 (15-LOX): 2.54 µM | IC50 (ovine COX-1): 7.86 µM | SI (COX-1/ COX-2) (human recombinant COX-2): 41 | IC50 (human recombinant COX-2): 0.19 µM

Cc1ccc(-c2nn(-c3ccccc3)cc2/C=C2\SC(N3CCCCC3)=NC2=O)cc1 [Compound 5, (Z)-5-((1-phenyl-3-(p-tolyl)-1H-pyrazol-4-yl)methylene)-2-(piperidin-1-yl)thiazol-4(5H)-one]
IC50 (15-LOX): 4.23 µM | IC50 (ovine COX-1): 9.23 µM | SI (COX-1/ COX-2) (human recombinant COX-2): 27 | IC50 (human recombinant COX-2): 0.34 µM

Cc1ccc(-c2nn(-c3ccccc3)cc2/C=C2\SC(N3CCOCC3)=NC2=O)cc1 [Compound 6, (Z)-2-morpholino-5-((1-phenyl-3-(p-tolyl)-1H-pyrazol-4-yl)methylene)thiazol-4(5H)-one]
IC50 (15-LOX): 2.85 µM | IC50 (ovine COX-1): 12.5 µM | SI (COX-1/ COX-2) (human recombinant COX-2): 69 | IC50 (human recombinant COX-2): 0.18 µM

O=C1N=C(N2CCCCC2)S/C1=C\c1cn(-c2ccccc2)nc1-c1ccc(Br)cc1 [Compound 9, (Z)-5-((3-(4-bromophenyl)-1-phenyl-1H-pyrazol-4-yl)methylene)-2-(piperidin-1-yl)thiazol-4(5H)-one]
IC50 (15-LOX): 5.64 µM | 15-LOX inhibitory activity as % of the activity of quercetin (15-LOX; relative to quercetin): 59% | IC50 (ovine COX-1): 14 µM | SI (COX-1/ COX-2) (human recombinant COX-2): 107 | IC50 (human recombinant COX-2): 0.13 µM | Inhibition of formalin-induced rat paw oedema (in words) [1]: as effective as either diclofenac or celecoxib | Inhibition of cotton pellet granuloma weight (in words) [2]: only superior to celecoxib

O=C1N=C(N2CCOCC2)S/C1=C\c1cn(-c2ccccc2)nc1-c1ccc(Br)cc1 [Compound 10, (Z)-5-((3-(4-bromophenyl)-1-phenyl-1H-pyrazol-4-yl)methylene)-2-morpholinothiazol-4(5H)-one]
IC50 (15-LOX): 4.52 µM | 15-LOX inhibitory activity as % of the activity of quercetin (15-LOX; relative to quercetin): 74% | IC50 (ovine COX-1): 11.3 µM | SI (COX-1/ COX-2) (human recombinant COX-2): 103 | IC50 (human recombinant COX-2): 0.11 µM | Inhibition of formalin-induced rat paw oedema (in words) [1]: as effective as either diclofenac or celecoxib | Gross observation of isolated rat stomachs (rat stomach): variable levels of hyperaemia without gross ulceration | Histopathological examination of stomach gastric layers (rat stomach; H&E, 5 mg/kg): both edoema and inflammatory changes in stomach mucosal surface | Inhibition of cotton pellet granuloma weight (in words) [2]: only superior to celecoxib

Cc1ccc(Cl)c(Nc2ccccc2C(=O)O)c1Cl [Meclofenamate Na, reference compound]
IC50 (15-LOX): 5.64 µM
